Source: patent publication US4845102A, “Therapeutic agent for the treatment of peptic ulcer disease” (Hoechst Japan Limited, priority 1986, dated 1989)

Legend:
in vivo [1] = details: mouse, mice
rats = assay: 3-month oral toxicity study in rats; assay type: in vivo; details: 3 months
Description: Compound 2 was administered orally to rats at 150 and 50 mg/kg/day for 3 months. This study included: observation of toxic signs during the treatment; macroscopic and microscopic examinations of main organs including the brain, heart, liver, kidney, bone marrow, adrenal, and lung; and biochemical tests of the blood and urine.

[2] = c.f. U.S. Pat. No. 4,289,776; cited from earlier work
[3] = tested on: ethanol-induced gastric ulcer; assay: Protective effect on ethanol-induced gastric ulcer in rats; assay type: in vivo, Male Sprague-Dawley rats; details: for Ulcer index: mean ± S.E.
Description: 1.2 Protective effect on ethanol-induced gastric ulcer in rats
Male Sprague-Dawley rats weighing 250-300 g were used in groups of 5-21. After fasting overnight, the animals were given orally the compounds. Thirty minutes later they received absolute ethanol (1 ml/body) orally and were sacrificed after 60 minutes. The stomach was removed and examined for erosions. The ulcer index was obtained in the same way as under 1.1.

gastric hemorrhage = assay: Inhibitory effect on gastric hemorrhage in rats (pylorus ligation, 2-deoxy-D-glucose plus indomethacin); assay type: in vivo, Male Sprague-Dawley rats; details: for Amount of hemoglobin: mean ± S.E.; for effect on gastric hemorrhage (in words): rats
Description: 1.3 Inhibitory effect on gastric hemorrhage in rats
The method of Maeda-Hagiwara and Watanabe (Eur. J. Pharmacol. 89, 243-250, 1983) was used. Male Sprague-Dawley rats weighing 250-300 g were employed in groups of 10-14. After 24 hours fasting, the pylorus was ligated under light ether anesthesia. Then, 200 mg/kg of 2-deoxy-D-glucose was administered intravenously in combination with 40 mg/kg of indomethacin suspended in 0.5 % carboxymethylcellulose by the subcutaneous route. After 1 hour the test compounds wer einjected intraperitoneally. Two hours later, the animals were exsanguinated under ether anesthesia and their stomachs were isolated. Gastric juice was collected and filtered. The amount of discharged blood was expressed as that of hemoglobin in mg per rat.

peptic ulcer disease [4] = assay: Antiulcer effect, general statements; details: in vivo
[5] = Toxicity, general statements; details: in vivo
[6] = tested on: stress-induced gastric ulcer; assay: Protective effect on gastric ulcer induced by restraint plus water-immersion stress in rats; assay type: in vivo, Male Sprague-Dawley rats; details: for Ulcer index: mean ± S.E.
Description: 1.1 Protective efrfect on gastric ulcer induced by restraint plus water-immersion stress in rats
Male Sprague-Dawley rats weighing 250-300 g wer eused in groups of 5-24. The animals were given the compounds by the oral route after fastin overnight. Immediately, under light ether anesthesia they were placed in a restraint box and immersed in water at 20° C. for 6 to 7 hours. Then the animals were sacrificed, and their stomachs were isolated, inflated with 4 ml of 1 % formalin for 10 minutes, opened along the greater cruvature, and examined for the rpesence of agstric erosions. The longest axis of each erosion induced on the glandular section of the stomach was measured, and the sum of the lengths was defined as an ulcer index.

in vivo [7] = details: rat, rats
peptic ulcer disease [8] = details: Vorobyev and Samsonov, Ter. Ark. 57, 52-55, 1985; cited from earlier work
[9] = ip, intraperitoneal administration
[10] = Table 5 (efficacy comparison), 10 mg/kg po
[11] = Table 3 (efficacy comparison), 10 mg/kg po

Structure (SMILES)	LD50 (in vivo [1]; [9]) [mg/kg]	Inhibition ([3]; Table 4, 10 mg/kg po) [%]	Ulcer index ([3]; Table 4, 10 mg/kg po) [mm]	Inhibition ([3]; Table 4, 25 mg/kg po) [%]	Ulcer index ([3]; Table 4, 25 mg/kg po) [mm]	Inhibition ([3]; Table 4, 50 mg/kg po) [%]	Ulcer index ([3]; Table 4, 50 mg/kg po) [mm]	Inhibition [3, 10] [%]	Ulcer index [3, 10] [mm]	Amount of hemoglobin (gastric hemorrhage; 25 mg/kg i.p.) [mg/rat]	Amount of hemoglobin (gastric hemorrhage; 50 mg/kg i.p.) [mg/rat]	effect on gastric hemorrhage (in words) (gastric hemorrhage)	Inhibition ([6]; Table 2, 10 mg/kg po) [%]	Ulcer index ([6]; Table 2, 10 mg/kg po) [mm]	Inhibition ([6]; Table 2, 25 mg/kg po) [%]	Ulcer index ([6]; Table 2, 25 mg/kg po) [mm]	Inhibition [6, 11] [%]	Ulcer index [6, 11] [mm]	further results
CCCn1cnc2c1c(=O)n(CCCCC(C)=O)c(=O)n2C [Compound 2, 1,2,3,6-tetrahydro-3-methyl-1-(5-oxohexyl)-7-propyl-purine-2,6-dione]	296	61.5	51.0 ± 13.2	75.4	32.6 ± 9.1	89.7	13.6 ± 9.3	86.9	21.6 ± 4.6	14.4 ± 1.4	12.5 ± 1.6	inhibitory effects on gastric hemorrhage	64.3	13.3 ± 5.4	75.6	9.1 ± 3.1	56.3	8.6 ± 2.3	LD50 (in vivo [1]; intravenous injection): 168 mg/kg; LD50 (in vivo [1]; oral dosing): 900 mg/kg; toxic signs, macroscopic and microscopic organ examinations, biochemical tests of blood and urine (rats; 50 mg/kg/day): no abnormalities at either level of treatment; toxic signs, macroscopic and microscopic organ examinations, biochemical tests of blood and urine (rats; 150 mg/kg/day): no abnormalities at either level of treatment except that slight salivation occurred at 150 mg/kg/day; pharmacological effects shown previously (in words) [2]: dilate cerebral blood vessels, improve cerebral energy metabolism, red blood cell deformability, and cerebral edema, and decrease blood viscosity; Amount of hemoglobin (gastric hemorrhage; 12.5 mg/kg i.p.): 27.0 ± 3.0 mg/rat; antiulcer effect (in words) (peptic ulcer disease [4]): improving effects on gastric ulcer; toxicity (in words) [5]: low toxicity; Inhibition ([6]; Table 2, 5 mg/kg po): 39.4%; Ulcer index ([6]; Table 2, 5 mg/kg po): 22.6 ± 9.8 mm; effectiveness relative to pentoxifylline in improving stress-induced gastric ulcers ([6]; versus pentoxifylline): 2 to 3 times; LD50 (in vivo [7]; intravenous injection): 180 mg/kg; LD50 (in vivo [7]; oral dosing): 1150 mg/kg
CCn1cnc2c1c(=O)n(CCCCC(C)=O)c(=O)n2C [Compound 1]	250 to 500							84.6	25.3 ± 10.9								77.2	4.5 ± 0.9	
CC(=O)CCCCn1c(=O)c2c(ncn2C)n(C)c1=O [Pentoxifylline, 1,2,3,6-tetrahydro-3,7-dimethyl-1-(5-oxohexyl)-purine-2,6-dione, reference compound]		50.3	65.8 ± 12.1	63.9	47.8 ± 15.3	85.9	18.7 ± 6.2	78.8	34.9 ± 10.9	19.6 ± 2.0	17.3 ± 2.3	did not have a statistically significant effect	25.8	24.4 ± 4.0	52.0	15.8 ± 4.1	12.7	17.2 ± 5.6	Inhibition ([6]; Table 2, 50 mg/kg po): 83.9%; Ulcer index ([6]; Table 2, 50 mg/kg po): 5.3 ± 1.2 mm; antiulcer effect reported in the literature (in words) (peptic ulcer disease [8]): antiulcer effects
CCCn1cnc2c1c(=O)n(CCCC(C)=O)c(=O)n2C [Compound 3]	300 to 600																67.0	6.5 ± 1.6	
